Our source for the AC50 and EC50 values is ChEMBL document CHEMBL1201862, “PubChem BioAssay data set” (2004).

Molecules are shown by their SMILES. Calls of active or inactive are those of the source.

One data set addresses Cytochrome P450 2C19 (Homo sapiens, UniProt P33261). Nature of the data set: Cytochrome panel assay with activity outcomes. Panel member name: p450-cyp2c19 Compounds with AC50 equal or less than 10 uM are considered active. It is filed as functional.
For a further data set, the target named is T1, Cytochrome P450 1A2 (Homo sapiens, UniProt P05177).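 Note: PubChem cytochrome P450 panel assay, CYP1A2 panel member.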
T1 sequence (P05177 whole entry): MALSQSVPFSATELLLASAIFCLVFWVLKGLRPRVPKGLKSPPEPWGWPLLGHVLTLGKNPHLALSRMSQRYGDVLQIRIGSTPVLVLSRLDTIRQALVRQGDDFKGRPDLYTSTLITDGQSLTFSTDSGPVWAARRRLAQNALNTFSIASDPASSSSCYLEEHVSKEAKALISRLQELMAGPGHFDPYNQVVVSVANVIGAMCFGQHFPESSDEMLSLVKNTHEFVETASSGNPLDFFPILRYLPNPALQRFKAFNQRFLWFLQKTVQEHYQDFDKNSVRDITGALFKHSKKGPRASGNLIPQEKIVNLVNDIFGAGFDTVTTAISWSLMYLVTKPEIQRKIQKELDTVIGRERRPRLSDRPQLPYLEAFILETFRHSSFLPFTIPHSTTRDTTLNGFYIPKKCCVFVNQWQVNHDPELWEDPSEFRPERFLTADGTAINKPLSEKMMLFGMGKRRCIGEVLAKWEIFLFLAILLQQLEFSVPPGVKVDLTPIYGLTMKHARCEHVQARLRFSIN

For the next data set, the target named is Cytochrome P450 2D6 (Homo sapiens, UniProt P10635).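 Note: CYP2D6 member of a cytochrome P450 panel assay.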
Cytochrome P450 2D6, sequence (P10635 whole entry): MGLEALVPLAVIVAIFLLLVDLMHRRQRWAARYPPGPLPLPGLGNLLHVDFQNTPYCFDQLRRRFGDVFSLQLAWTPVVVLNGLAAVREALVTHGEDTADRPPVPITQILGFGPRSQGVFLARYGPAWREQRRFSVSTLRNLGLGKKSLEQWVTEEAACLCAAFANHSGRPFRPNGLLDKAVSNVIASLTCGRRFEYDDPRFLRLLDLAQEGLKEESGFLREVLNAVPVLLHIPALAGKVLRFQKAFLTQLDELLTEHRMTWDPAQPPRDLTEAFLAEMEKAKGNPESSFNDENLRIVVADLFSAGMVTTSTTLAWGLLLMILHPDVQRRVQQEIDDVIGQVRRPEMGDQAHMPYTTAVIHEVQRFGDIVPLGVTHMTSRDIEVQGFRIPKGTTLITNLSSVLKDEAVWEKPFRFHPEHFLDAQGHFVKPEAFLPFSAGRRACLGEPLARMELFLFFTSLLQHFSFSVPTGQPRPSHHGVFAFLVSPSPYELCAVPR
The target of the next data set is Cytochrome P450 3A4 (Homo sapiens, UniProt P08684).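 Note: CYP3A4 tested as one member of a cytochrome P450 panel screen.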
Cytochrome P450 3A4, sequence (P08684 whole entry): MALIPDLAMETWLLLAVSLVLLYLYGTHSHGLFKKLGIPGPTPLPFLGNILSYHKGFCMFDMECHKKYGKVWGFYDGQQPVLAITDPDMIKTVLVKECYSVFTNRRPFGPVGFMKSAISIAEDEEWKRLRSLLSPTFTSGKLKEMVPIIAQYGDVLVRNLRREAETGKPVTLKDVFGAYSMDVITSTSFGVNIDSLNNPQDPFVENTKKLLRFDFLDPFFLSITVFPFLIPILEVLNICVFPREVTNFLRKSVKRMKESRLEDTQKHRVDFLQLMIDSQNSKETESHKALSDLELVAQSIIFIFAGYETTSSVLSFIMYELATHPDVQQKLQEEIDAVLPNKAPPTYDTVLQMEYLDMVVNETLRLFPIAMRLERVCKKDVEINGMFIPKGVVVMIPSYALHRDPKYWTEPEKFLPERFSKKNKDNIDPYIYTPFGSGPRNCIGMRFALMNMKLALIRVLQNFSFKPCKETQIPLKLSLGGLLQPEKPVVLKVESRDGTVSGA
Another data set addresses Paired box protein Pax-8 (Homo sapiens, UniProt Q06710). Nature of the data set: inhibitors of PAX8-driven TPO luciferase reporter, dose response, RMG-I cells, cherry-pick (AID 687027).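 Note: luciferase reporter driven by Pax8 target thyroperoxidase promoter measured by SteadyGlo luminescence.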 The class given is functional, cell-based. (In general: A reporter such as luciferase makes a cellular process visible.)
Data set [1] deals with Streptococcus sp. 'group A'. Nature of the data set: growth inhibition of control SK(-) GAS strain, dose response, counter-screen for streptokinase expression inhibitor project, luminescence, kanamycin, BacTiterGlo, confirmation (AID 1900). The class given is functional, organism-based. In general terms: Counterscreens check selectivity or assay interference.
The next data set has as its target T2, Streptokinase A (Streptococcus pyogenes serotype M1, UniProt P10520).
T2 sequence (P10520 whole entry): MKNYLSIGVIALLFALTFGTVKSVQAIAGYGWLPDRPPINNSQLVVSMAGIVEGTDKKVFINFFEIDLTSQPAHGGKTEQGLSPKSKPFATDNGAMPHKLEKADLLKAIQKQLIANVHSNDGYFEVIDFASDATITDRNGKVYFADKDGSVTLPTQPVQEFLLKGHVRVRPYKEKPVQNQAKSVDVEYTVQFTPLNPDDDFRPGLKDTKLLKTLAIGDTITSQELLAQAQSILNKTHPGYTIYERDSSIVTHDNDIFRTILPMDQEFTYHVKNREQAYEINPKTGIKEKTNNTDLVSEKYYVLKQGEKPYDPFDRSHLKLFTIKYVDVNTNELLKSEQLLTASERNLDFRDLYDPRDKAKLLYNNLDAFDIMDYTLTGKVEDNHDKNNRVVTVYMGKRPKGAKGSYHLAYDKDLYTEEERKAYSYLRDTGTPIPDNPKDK
The data set can be described thus: S. pyogenes streptokinase expression inhibitors, potency, dose response, plasminogen activation absorbance, OD405 (AID 1914).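 Note: secreted streptokinase activity via plasminogen activation per viability signal from cell pellet.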 It is filed as functional, Streptococcus pyogenes M1 GAS.

The next data set relates to Streptococcus. Nature of the data set: Group A Streptococcus viability loss, dose response, counter-screen for streptokinase expression inhibitor project, luminescence, BacTiterGlo (AID 1915).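 Note: potency for reduction of bacterial viability or growth.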 The class given is functional, organism-based.

Cytochrome P450 2C19, sequence (P33261 whole entry): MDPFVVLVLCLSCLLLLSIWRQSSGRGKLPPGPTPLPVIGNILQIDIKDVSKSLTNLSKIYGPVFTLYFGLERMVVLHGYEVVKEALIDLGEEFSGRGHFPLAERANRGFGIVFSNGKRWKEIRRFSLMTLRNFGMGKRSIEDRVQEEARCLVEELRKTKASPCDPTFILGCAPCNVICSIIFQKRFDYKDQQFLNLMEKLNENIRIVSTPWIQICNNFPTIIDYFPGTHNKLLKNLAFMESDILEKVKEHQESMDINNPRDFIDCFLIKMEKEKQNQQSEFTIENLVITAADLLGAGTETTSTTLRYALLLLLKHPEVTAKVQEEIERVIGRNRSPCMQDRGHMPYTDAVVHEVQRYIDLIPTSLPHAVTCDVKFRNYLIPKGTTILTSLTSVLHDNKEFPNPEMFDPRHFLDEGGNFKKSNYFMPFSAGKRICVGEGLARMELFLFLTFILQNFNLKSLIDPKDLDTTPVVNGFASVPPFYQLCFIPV
Paired box protein Pax-8, sequence (Q06710 whole entry): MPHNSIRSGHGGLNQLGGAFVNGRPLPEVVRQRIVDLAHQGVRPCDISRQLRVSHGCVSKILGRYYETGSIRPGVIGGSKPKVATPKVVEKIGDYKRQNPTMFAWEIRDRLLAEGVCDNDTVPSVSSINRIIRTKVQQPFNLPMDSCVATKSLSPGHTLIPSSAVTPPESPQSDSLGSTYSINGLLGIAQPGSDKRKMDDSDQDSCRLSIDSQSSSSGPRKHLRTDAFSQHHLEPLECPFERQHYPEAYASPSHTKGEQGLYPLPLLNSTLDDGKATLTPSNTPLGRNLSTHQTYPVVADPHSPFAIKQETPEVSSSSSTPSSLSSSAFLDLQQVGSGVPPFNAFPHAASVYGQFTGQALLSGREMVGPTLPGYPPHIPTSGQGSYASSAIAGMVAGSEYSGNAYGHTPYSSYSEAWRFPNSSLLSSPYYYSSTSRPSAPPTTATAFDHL

In general, AC50 refers to the concentration giving half of the maximal activity seen. `CC1(C)[C@@H]2CC[C@]1(C)[C@@H](OC(=O)/C=C\c1ccccc1)C2`: the AC50 on Cytochrome P450 2C19 (read-out: AC50) was 0.00398 µM (inconclusive).
`CCN(CC)C(=O)C1=C(C)N=C(S)NC1c1cn(-c2ccccc2)nc1-c1ccc(Cl)cc1` (stereo not drawn): the half-maximal activity concentration (AC50) at Cytochrome P450 2C19 (read-out: AC50) is 17.8 µM (inconclusive); on Cytochrome P450 1A2, 28.2 µM (inconclusive).
`CCCCNC(=O)CCn1c(=S)[nH]c2cc3c(cc2c1=O)OCO3`: on Cytochrome P450 2C19 (read-out: AC50), the concentration at half-maximal activity (AC50) is 3.55 µM (inconclusive).
As for `CN1CCN(c2ncc3nc(CCc4ccccc4)c(=O)n(Cc4cccs4)c3n2)CC1`, the values for the AC50 on Cytochrome P450 2C19 (read-out: AC50), on Cytochrome P450 2D6 and at Cytochrome P450 3A4 were 39.8 µM (inconclusive), 20 µM (inconclusive) and 12.6 µM (inconclusive), respectively.
With `C[C@@H]1CN([C@H](C)CO)C(=O)c2cc(NS(=O)(=O)c3ccc(Cl)cc3)ccc2O[C@@H](C)CCCCO[C@H]1CN(C)C(=O)C1CCCCC1`, the concentration at half-maximal activity (AC50) on Paired box protein Pax-8 is 15.8 µM (active).
In general, EC50 refers to the midpoint of the concentration-response curve. In the case of `Cc1ccccc1NC(=O)C(=O)NC(C)CCc1ccccc1` (stereo not drawn), the EC50 (in data set [1]; on Streptokinase A; with Streptococcus) was > 150 µM (not active) each time.
Regarding `Oc1cccc2ccc(/C=C/c3c(F)cccc3Cl)nc12`, the half-maximal effective concentration (EC50) in data set [1] was 0.589 µM (active); at Streptokinase A it was > 150 µM (not active); in the data set on Streptococcus, 32.2 µM (active).
Consider `Cc1nnc(O)c2c(NC(=O)CSc3nnnn3-c3ccccc3)oc(C)c12`, for which the concentration giving a half-maximal response (EC50) (in data set [1]; at Streptokinase A; in the data set on Streptococcus) was > 150 µM (not active) in each case.
For `CC/C(=N\NC(=S)Nc1cc(C)ccc1C)c1ccc(OC(F)F)cc1`, the concentration giving a half-maximal response (EC50) is 6.27 µM (active) in data set [1], > 150 µM (not active) on Streptokinase A and 11.8 µM (active) with Streptococcus.
Regarding `Cc1cccc(C)c1OCC(=O)Nc1ccccc1N1CCCCC1`, the EC50 was 3.36 µM (active) in data set [1], 4.15 µM (active) on Streptokinase A and 12.5 µM (active) with Streptococcus.
The like results for `Cc1nn(CC(O)CN2c3ccccc3Sc3ccccc32)c(C)c1Br` (stereo not drawn) were, in that order, 3.47 µM (active), 8 µM (active) and 21.4 µM (active).
In the case of `Cn1c(CN2CCOCC2)nnc1SCc1ccccc1`, the AC50 on Cytochrome P450 2C19 (read-out: AC50) was 20 µM (inconclusive).
Turning to `C[C@@H](C(=O)O)c1ccc(C[C@@H]2CCCC2=O)cc1`, the AC50 result on Cytochrome P450 2C19 was “inconclusive”.
In the case of `CC(C)CN(C(=O)COc1ccc(-c2nnco2)cc1)C1CCS(=O)(=O)C1` (stereo not drawn), the half-maximal effective concentration (EC50) (in data set [1]; at Streptokinase A; in the data set on Streptococcus) was > 150 µM (not active) in each case.
`CCOC(=O)C1=C(N)Oc2ccc3ccccc3c2C1c1ccc(O)cc1` (stereo not drawn): the EC50 in data set [1] is 8.94 µM (active); at Streptokinase A, 11.5 µM (active); with Streptococcus, > 150 µM (not active).
`C=CC[C@@H](C(=O)O)c1ccccc1`: the AC50 result on Cytochrome P450 2C19 is “inconclusive”.
For the compound `CCOc1cc(NC(=O)c2ccccc2[N+](=O)[O-])c(OCC)cc1NC(=O)CC(C)C`, the AC50 on Cytochrome P450 2C19 (read-out: AC50) was 0.0112 µM (inconclusive).
As to `CCC(CC)C(=O)Nc1c2c(nn1-c1ccc(OC)cc1)CS(=O)(=O)C2`, the AC50 is 35.5 µM (inconclusive) at Cytochrome P450 2C19 (read-out: AC50) and 25.1 µM (inconclusive) at Cytochrome P450 3A4.
`CCOC(=O)c1cnn(-c2nc(-c3cccc(F)c3)cs2)c1C(F)(F)F`: the figures for the EC50 (in data set [1]; on Streptokinase A; in the data set on Streptococcus) were 9.99 µM (active), 20.8 µM (active) and 17.6 µM (active), respectively.
Consider `c1cncc(CNc2ncn[nH]2)c1`, for which, on Cytochrome P450 2C19, the AC50 entry is listed as “inconclusive”.
On to `Cc1ccc2nc(Nc3ccccc3O)nc(-c3ccccc3)c2c1`, for which the AC50 on Cytochrome P450 2C19 (read-out: AC50) was 2.24 µM (inconclusive); on Cytochrome P450 2D6, 3.55 µM (inconclusive); at Cytochrome P450 3A4, 35.5 µM (inconclusive).
As to `O=C(Nc1ccccc1)N1CCCC2(CCN(S(=O)(=O)c3ccccc3)CC2)C1`, the half-maximal activity concentration (AC50) on Cytochrome P450 2D6 is 15.8 µM (inconclusive); at Cytochrome P450 1A2, 15.8 µM (inconclusive); at Cytochrome P450 3A4, 5.01 µM (inconclusive).
